# Values quoted from earlier work in US20130039957A1, “CONTROLLED RELEASE PHARMACEUTICAL COMPOSITIONS OF BRIVARACETAM” (LUPIN LIMITED, priority 2010, published 2013).
# What was measured:
# [1] = healthy subjects
# [2] = molecular target: synaptic vesicle protein 2A (SV2A) (Homo sapiens, UniProt Q7L0J3); conditions: preclinical studies
# [3] = test system: neuronal voltage-dependent sodium channels; conditions: preclinical studies
# Sequence of synaptic vesicle protein 2A (SV2A) (Q7L0J3 whole entry, species assumed): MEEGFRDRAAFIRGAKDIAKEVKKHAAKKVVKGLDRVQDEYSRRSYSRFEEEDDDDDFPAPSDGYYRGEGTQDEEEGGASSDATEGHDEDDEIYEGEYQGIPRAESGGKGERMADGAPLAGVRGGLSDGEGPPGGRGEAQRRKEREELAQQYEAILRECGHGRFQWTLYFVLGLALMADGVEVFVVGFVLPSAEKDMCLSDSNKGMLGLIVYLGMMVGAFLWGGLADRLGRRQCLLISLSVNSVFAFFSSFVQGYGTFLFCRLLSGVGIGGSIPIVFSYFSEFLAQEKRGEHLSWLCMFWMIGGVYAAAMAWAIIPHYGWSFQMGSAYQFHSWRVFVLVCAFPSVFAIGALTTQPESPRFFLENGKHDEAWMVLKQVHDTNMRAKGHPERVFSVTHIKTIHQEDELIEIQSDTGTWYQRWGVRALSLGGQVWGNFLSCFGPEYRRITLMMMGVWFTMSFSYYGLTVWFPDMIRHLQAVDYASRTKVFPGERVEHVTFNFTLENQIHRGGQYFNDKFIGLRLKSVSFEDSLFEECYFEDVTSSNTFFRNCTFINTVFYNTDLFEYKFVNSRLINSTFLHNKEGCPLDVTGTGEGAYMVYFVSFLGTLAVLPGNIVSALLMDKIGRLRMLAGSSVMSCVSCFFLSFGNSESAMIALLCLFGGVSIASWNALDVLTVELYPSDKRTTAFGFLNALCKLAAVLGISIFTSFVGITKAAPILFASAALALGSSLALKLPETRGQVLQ
structure (smiles),measurement,setting,value
CCC[C@@H]1CC(=O)N([C@@H](CC)C(N)=O)C1 [Brivaracetam],half life,[1],7.6 ± 1.7 h
same,water solubility,,700 mg/mL
same,affinity for synaptic vesicle protein 2A (SV2A),[2],showed affinity
same,inhibitory activity at neuronal voltage-dependent sodium channels,[3],has inhibitory activity
